Results reported in patent US20080009418A1, “Selective Inhibitors” (Alchemia LTD., priority 2004, published 2008).

What was measured:
Human neurokinin (NK1) = target: T1, Human neurokinin (NK1) (Homo sapiens, UniProt P25103); assay: Radioligand binding, human neurokinin NK1 membranes, filtration, [125I]-Substance P; settings: compound at 10 μM; [125I]-Substance P
T1 construct: purchased Perkin Elmer Biosignal
Summary of the method: (§1)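 Filtration binding on cloned human receptor membranes (1 Unit/well), [125I]-Substance P for NK1 and [3H]-Diprenorphine for KOP, 1 h at room temperature. Filters PEI-presoaked, washed with cold 50 mM Tris-HCl pH 7.4, counted by scintillation; percent inhibition calculated, reference ligand defining non-specific binding.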

Human μ-opioid (MOP) = target: T2, Human μ-opioid (MOP) (Homo sapiens, UniProt P35372); assay: Radioligand binding, human μ-opioid (MOP) membranes, FlashPlate, [3H]-Naloxone; settings: compound at 10 μM, [3H]-Naloxone
T2 construct: purchased Perkin Elmer Biosignal
T2 sequence (P35372 whole entry): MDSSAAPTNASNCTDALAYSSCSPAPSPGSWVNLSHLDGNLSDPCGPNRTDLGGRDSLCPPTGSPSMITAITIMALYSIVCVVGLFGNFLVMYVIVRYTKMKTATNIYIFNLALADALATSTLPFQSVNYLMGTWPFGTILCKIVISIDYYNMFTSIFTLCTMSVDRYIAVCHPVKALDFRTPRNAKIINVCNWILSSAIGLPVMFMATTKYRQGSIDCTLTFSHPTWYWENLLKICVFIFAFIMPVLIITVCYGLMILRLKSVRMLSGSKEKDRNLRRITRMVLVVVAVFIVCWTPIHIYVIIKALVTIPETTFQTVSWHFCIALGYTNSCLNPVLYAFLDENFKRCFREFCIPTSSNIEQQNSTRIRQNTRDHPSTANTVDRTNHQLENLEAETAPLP
Summary of the method: (§2)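 Cloned human receptor membranes were coated onto FlashPlate wells and incubated with radioligand and compound (added from a 0.5 mM DMSO daughter plate) for 1 hour at room temperature in the dark. Scintillation counting gave percent inhibition, with DMSO defining total and reference ligand defining non-specific binding.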

Human opioid (ORL1) = target: T3, Human opioid (ORL1) (Homo sapiens, UniProt P41146); assay: Radioligand binding, human opioid ORL1 membranes, FlashPlate, [125I]-Nociceptin; settings: compound at 10 μM; [125I]-Nociceptin
T3 construct: purchased Perkin Elmer Biosignal
T3 sequence (P41146 whole entry): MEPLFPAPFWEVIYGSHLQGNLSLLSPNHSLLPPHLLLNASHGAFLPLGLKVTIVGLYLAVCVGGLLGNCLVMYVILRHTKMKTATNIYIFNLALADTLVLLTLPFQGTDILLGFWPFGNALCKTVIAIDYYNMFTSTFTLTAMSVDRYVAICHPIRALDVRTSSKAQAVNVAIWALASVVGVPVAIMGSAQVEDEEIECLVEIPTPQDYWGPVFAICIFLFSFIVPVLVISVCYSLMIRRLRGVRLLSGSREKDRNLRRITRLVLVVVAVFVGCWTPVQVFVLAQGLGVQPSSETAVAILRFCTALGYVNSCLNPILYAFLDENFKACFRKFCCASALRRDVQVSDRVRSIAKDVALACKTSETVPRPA
Summary of the method: as §2

Human melanocortin (MC5) = target: T4, Human melanocortin (MC5) (Homo sapiens, UniProt P33032); assay: Radioligand binding, human melanocortin MC5 membranes, FlashPlate, [125I]-NDP-αMSH; settings: compound at 10 μM; [125I]-NDP-αMSH
T4 construct: purchased Perkin Elmer Biosignal
T4 sequence (P33032 whole entry): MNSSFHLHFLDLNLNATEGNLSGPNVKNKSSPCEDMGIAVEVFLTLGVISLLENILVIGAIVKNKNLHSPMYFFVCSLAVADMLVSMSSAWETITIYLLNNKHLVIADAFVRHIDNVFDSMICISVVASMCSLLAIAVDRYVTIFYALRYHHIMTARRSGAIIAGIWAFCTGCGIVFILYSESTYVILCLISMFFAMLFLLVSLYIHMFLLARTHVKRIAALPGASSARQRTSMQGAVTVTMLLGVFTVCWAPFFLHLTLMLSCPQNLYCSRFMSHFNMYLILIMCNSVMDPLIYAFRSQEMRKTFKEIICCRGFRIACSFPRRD
Summary of the method: as §2

Human Melanocortin (MC4) = target: T5, Human Melanocortin (MC4) (Homo sapiens, UniProt P32245); assay: Radioligand binding, human melanocortin MC4 membranes, FlashPlate, [125I]-NDP-αMSH; settings: compound at 10 μM; [125I]-NDP-αMSH
T5 construct: purchased Perkin Elmer Biosignal
T5 sequence (P32245 whole entry): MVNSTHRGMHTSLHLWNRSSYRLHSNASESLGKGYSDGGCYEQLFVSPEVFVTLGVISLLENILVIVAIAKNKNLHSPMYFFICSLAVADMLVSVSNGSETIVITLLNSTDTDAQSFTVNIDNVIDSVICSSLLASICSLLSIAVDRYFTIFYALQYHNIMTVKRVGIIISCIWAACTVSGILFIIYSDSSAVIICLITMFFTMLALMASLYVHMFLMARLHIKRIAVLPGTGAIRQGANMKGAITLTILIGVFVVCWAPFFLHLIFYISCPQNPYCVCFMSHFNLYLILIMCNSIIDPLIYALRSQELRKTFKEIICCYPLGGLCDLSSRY
Summary of the method: as §2

Human Melanocortin (MC3) = target: T6, Human Melanocortin (MC3) (Homo sapiens, UniProt P41968); assay: Radioligand binding, human melanocortin MC3 membranes, FlashPlate, [125I]-NDP-αMSH; settings: compound at 10 μM; [125I]-NDP-αMSH
T6 construct: purchased Perkin Elmer Biosignal
T6 sequence (P41968 whole entry): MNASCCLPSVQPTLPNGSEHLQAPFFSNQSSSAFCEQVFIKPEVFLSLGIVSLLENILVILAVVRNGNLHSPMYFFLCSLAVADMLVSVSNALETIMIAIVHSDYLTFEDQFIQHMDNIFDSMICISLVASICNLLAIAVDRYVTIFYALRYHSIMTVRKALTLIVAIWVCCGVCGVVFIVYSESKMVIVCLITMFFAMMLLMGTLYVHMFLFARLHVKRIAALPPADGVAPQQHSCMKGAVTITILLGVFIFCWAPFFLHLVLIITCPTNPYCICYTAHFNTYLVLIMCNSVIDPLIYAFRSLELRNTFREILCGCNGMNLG
Summary of the method: as §2

Human κ-Opioid (KOP) = target: T7, Human κ-Opioid (KOP) (Homo sapiens, UniProt P41145); assay: Radioligand binding, human κ-opioid (KOP) membranes, filtration, [3H]-Diprenorphine; settings: compound at 10 μM, [3H]-Diprenorphine
T7 construct: purchased Perkin Elmer Biosignal
T7 sequence (P41145 whole entry): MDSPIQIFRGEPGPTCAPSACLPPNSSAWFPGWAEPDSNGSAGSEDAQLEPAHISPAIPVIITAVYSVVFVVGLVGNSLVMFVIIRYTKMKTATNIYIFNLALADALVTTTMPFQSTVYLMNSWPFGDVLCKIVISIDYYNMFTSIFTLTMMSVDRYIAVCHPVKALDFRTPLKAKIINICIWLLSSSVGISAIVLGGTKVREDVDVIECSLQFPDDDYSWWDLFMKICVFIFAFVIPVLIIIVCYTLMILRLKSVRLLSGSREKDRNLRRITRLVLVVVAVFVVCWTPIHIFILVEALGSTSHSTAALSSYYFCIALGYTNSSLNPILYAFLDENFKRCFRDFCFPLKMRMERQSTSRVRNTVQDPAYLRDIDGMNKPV
Summary of the method: as §1

Human δ-opioid (DOP) = target: T8, Human δ-opioid (DOP) (Homo sapiens, UniProt P41143); assay: Radioligand binding, human δ-opioid (DOP) membranes, FlashPlate, [3H]-Bremazocine; settings: compound at 10 μM, [3H]-Bremazocine
T8 construct: purchased Perkin Elmer Biosignal
T8 sequence (P41143 whole entry): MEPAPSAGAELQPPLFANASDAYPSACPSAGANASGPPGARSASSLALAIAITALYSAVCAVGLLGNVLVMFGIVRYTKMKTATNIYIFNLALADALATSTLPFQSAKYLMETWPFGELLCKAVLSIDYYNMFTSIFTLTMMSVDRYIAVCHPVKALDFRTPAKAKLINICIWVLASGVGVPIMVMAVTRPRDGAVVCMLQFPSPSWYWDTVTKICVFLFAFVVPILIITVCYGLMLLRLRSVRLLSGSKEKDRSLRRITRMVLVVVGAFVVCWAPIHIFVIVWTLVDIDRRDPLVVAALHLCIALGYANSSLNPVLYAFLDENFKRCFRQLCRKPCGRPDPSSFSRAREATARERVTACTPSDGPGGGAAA
Summary of the method: as §2

Mouse urotensin (mUR2) = target: T9, Mouse urotensin (mUR2) (Mus musculus, UniProt Q8VIH9); assay: Radioligand binding, mouse urotensin mUR2 membranes, FlashPlate, [125I]-Urotensin II; settings: compound at 10 μM, [125I]-Urotensin II
T9 construct: purchased Perkin Elmer Biosignal
T9 sequence (Q8VIH9 1-385): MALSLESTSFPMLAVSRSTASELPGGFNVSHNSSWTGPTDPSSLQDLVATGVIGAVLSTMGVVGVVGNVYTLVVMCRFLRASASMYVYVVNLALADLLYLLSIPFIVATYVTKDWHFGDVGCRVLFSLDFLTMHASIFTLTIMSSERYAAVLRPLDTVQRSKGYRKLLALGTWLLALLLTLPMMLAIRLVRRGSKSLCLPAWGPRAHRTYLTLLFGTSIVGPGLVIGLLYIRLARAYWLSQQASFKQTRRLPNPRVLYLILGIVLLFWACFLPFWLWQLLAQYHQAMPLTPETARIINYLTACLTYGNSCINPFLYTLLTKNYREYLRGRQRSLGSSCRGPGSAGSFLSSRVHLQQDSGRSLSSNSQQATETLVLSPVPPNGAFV
Summary of the method: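 Cloned mouse urotensin (mUR2) receptor membranes from Perkin Elmer Biosignal were immobilized in FlashPlate microplates using a proprietary coating. Each well got 19.5 μl buffer, then 0.5 μl of DMSO, reference ligand, or compound. Adding 5 μl of [125I]-Urotensin II, diluted to 5× final concentration in binding buffer, started binding. Plates were sealed with TopSeal-A and incubated 1 hour at room temperature in the dark. Wells were counted for 30 seconds each on a TopCount after a 60-second delay, and percentage inhibition was calculated.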

[1] = target: T10, Human neuropeptide Y (NPY-Y1) (Homo sapiens, UniProt P25929); assay: Radioligand binding, human neuropeptide Y NPY-Y1 membranes, FlashPlate, [125I]-PYY; settings: compound at 10 μM, [125I]-PYY
T10 construct: purchased Perkin Elmer Biosignal
T10 sequence (P25929 1-384): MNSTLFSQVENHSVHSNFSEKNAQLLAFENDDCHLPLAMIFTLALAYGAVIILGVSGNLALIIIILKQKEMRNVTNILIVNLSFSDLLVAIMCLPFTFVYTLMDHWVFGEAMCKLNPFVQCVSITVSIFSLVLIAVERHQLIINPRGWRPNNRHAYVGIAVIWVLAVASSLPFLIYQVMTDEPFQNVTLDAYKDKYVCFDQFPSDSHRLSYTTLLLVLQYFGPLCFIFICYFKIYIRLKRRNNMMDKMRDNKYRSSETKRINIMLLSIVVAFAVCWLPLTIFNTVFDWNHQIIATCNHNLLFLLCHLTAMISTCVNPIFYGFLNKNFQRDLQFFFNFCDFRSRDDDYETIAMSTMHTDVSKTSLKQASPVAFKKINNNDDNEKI
Summary of the method: as §2

[2] = target: T11, Human melanin-concentrating hormone (MCH1) (Homo sapiens, UniProt Q99705); assay: Radioligand binding, human melanin-concentrating hormone MCH1 membranes, FlashPlate, [125I]-S36057; settings: compound at 10 μM; [125I]-S36057
T11 construct: purchased Perkin Elmer Biosignal
T11 sequence (Q99705 whole entry): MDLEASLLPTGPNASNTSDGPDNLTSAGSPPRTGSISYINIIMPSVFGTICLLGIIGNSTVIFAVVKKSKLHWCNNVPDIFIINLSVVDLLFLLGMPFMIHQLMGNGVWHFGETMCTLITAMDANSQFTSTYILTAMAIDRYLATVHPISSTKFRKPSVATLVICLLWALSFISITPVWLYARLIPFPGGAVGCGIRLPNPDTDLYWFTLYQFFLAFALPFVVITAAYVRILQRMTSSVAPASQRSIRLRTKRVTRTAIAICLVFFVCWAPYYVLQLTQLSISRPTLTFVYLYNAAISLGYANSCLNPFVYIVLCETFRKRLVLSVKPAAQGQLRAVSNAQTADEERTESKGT
Summary of the method: as §2

T1 sequence (P25103 whole entry): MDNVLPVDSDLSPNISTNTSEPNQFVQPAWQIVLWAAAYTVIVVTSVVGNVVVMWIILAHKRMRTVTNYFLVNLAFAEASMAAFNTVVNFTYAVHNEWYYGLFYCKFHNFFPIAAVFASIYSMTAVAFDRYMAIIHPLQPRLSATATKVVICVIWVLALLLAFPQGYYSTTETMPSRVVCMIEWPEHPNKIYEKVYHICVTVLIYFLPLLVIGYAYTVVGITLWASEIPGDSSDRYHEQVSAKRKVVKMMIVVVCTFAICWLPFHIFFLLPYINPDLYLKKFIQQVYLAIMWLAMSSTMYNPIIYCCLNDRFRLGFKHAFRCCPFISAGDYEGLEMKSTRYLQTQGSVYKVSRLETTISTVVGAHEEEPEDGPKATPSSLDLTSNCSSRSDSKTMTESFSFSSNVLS

SMILES | A8: inhibition of radioligand binding, human neurokinin (NK1) (Human neurokinin (NK1)) | A7: inhibition of radioligand binding, human μ-opioid (MOP) (Human μ-opioid (MOP)) | A10: inhibition of radioligand binding, human opioid (ORL1) (Human opioid (ORL1)) | A5: inhibition of radioligand binding, human melanocortin (MC5) (Human melanocortin (MC5)) | A4: inhibition of radioligand binding, human melanocortin (MC4) (Human Melanocortin (MC4)) | A3: inhibition of radioligand binding, human melanocortin (MC3) (Human Melanocortin (MC3)) | A2: inhibition of radioligand binding, human κ-opioid (KOP) (Human κ-Opioid (KOP)) | A1: inhibition of radioligand binding, human δ-opioid (DOP) (Human δ-opioid (DOP)) | A11: inhibition of radioligand binding, mouse urotensin (mUR2) (Mouse urotensin (mUR2)) | A9: inhibition of radioligand binding, human neuropeptide Y (NPY-Y1) [1] | A6: inhibition of radioligand binding, human melanin-concentrating hormone (MCH1) [2] | A7: inhibition of radioligand binding, human μ-opioid (MOP) (Human μ-opioid (MOP); 10 µM) | A1: inhibition of radioligand binding, human δ-opioid (DOP) (Human δ-opioid (DOP); 10 µM) | A2: inhibition of radioligand binding, human κ-opioid (KOP) (Human κ-Opioid (KOP); 10 µM) | A11: inhibition of radioligand binding, mouse urotensin (mUR2) (Mouse urotensin (mUR2); 10 µM) | A9: inhibition of radioligand binding, human neuropeptide Y (NPY-Y1) ([1]; 10 µM)
N=C(N)NCCC(=O)N[C@H]1C(OCc2ccc(Cl)cc2)O[C@H](COCc2ccc3ccccc3c2)[C@@H](O)[C@@H]1OCc1ccc(-c2ccccc2)cc1 (stereo partly shown) [compound 533] | + (“+” indicates greater than 50% inhibition at 10 μM) | − (“−” indicates less than 50% inhibition at 10 μM) | − (“−” indicates less than 50% inhibition at 10 μM) | + (“+” indicates greater than 50% inhibition at 10 μM) | + (“+” indicates greater than 50% inhibition at 10 μM) | + (“+” indicates greater than 50% inhibition at 10 μM) | − (“−” indicates less than 50% inhibition at 10 μM) | − (“−” indicates less than 50% inhibition at 10 μM) | − (“−” indicates less than 50% inhibition at 10 μM) | − (“−” indicates less than 50% inhibition at 10 μM) | + (“+” indicates greater than 50% inhibition at 10 μM) |  |  |  |  | 
N=C(N)NCCC(=O)N[C@H]1C(OCc2ccc(Cl)cc2)O[C@H](COCc2ccc3ccccc3c2)[C@@H](O)[C@@H]1OCc1ccc(-c2ccccc2)cc1 (stereo partly shown) [compound 534] | + (“+” indicates greater than 50% inhibition at 10 μM) | − (“−” indicates less than 50% inhibition at 10 μM) | − (“−” indicates less than 50% inhibition at 10 μM) | + (“+” indicates greater than 50% inhibition at 10 μM) | + (“+” indicates greater than 50% inhibition at 10 μM) | + (“+” indicates greater than 50% inhibition at 10 μM) | − (“−” indicates less than 50% inhibition at 10 μM) | − (“−” indicates less than 50% inhibition at 10 μM) | − (“−” indicates less than 50% inhibition at 10 μM) | − (“−” indicates less than 50% inhibition at 10 μM) | + (“+” indicates greater than 50% inhibition at 10 μM) |  |  |  |  | 
N=C(N)NCCC(=O)N[C@H]1C(OCc2ccc(Cl)cc2)O[C@H](COCc2ccccc2)[C@@H](O)[C@@H]1OCc1ccc(-c2ccccc2)cc1 (stereo partly shown) [compound 535] | + (“+” indicates greater than 50% inhibition at 10 μM) |  | − (“−” indicates less than 50% inhibition at 10 μM) | + (“+” indicates greater than 50% inhibition at 10 μM) | + (“+” indicates greater than 50% inhibition at 10 μM) | + (“+” indicates greater than 50% inhibition at 10 μM) | + (“+” indicates greater than 50% inhibition at 10 μM) |  | − (“−” indicates less than 50% inhibition at 10 μM) | − (“−” indicates less than 50% inhibition at 10 μM) | + (“+” indicates greater than 50% inhibition at 10 μM) | + (“+” indicates greater than 50% inhibition at 10 μM) | + (“+” indicates greater than 50% inhibition at 10 μM) |  |  | 
N=C(N)NCCC(=O)N[C@H]1C(OCc2ccc(Cl)cc2)O[C@H](COCc2ccccc2)[C@@H](O)[C@@H]1OCc1ccc(-c2ccccc2)cc1 (stereo partly shown) [compound 536] | + (“+” indicates greater than 50% inhibition at 10 μM) |  | − (“−” indicates less than 50% inhibition at 10 μM) | + (“+” indicates greater than 50% inhibition at 10 μM) | + (“+” indicates greater than 50% inhibition at 10 μM) | + (“+” indicates greater than 50% inhibition at 10 μM) | + (“+” indicates greater than 50% inhibition at 10 μM) |  | − (“−” indicates less than 50% inhibition at 10 μM) | − (“−” indicates less than 50% inhibition at 10 μM) | + (“+” indicates greater than 50% inhibition at 10 μM) | − (“−” indicates less than 50% inhibition at 10 μM) | − (“−” indicates less than 50% inhibition at 10 μM) |  |  | 
N=C(N)NCCC(=O)N[C@H]1C(OCc2ccc(Cl)cc2)O[C@H](COCc2ccc(Cl)cc2)[C@@H](O)[C@@H]1OCc1ccc(-c2ccccc2)cc1 (stereo partly shown) [compound 537] | + (“+” indicates greater than 50% inhibition at 10 μM) | − (“−” indicates less than 50% inhibition at 10 μM) | + (“+” indicates greater than 50% inhibition at 10 μM) | + (“+” indicates greater than 50% inhibition at 10 μM) | + (“+” indicates greater than 50% inhibition at 10 μM) | + (“+” indicates greater than 50% inhibition at 10 μM) |  | − (“−” indicates less than 50% inhibition at 10 μM) |  |  | + (“+” indicates greater than 50% inhibition at 10 μM) |  |  | − (“−” indicates less than 50% inhibition at 10 μM) | − (“−” indicates less than 50% inhibition at 10 μM) | − (“−” indicates less than 50% inhibition at 10 μM)
